# Measured values taken from patent US20090023773A1, “COMPOSITIONS AND METHODS FOR MODULATING GATED ION CHANNELS” (PainCeptor Pharma Corporation, priority 2007, published 2009).
# Assays:
# [1] = system: acute paw inflammation caused by intraplantar injection of λ-carrageenan; assay: Carrageenan model for pain (Example 8); assay type: in vivo; settings: rat, 30 and 100 mg/kg SC, 4 h post-carrageenan
# Description: Acute inflammatory hyperalgesia is induced in rats by unilateral injection of 150 μl of a 3% solution of λ-carrageenan into the plantar surface of the left hind paw 3-5 hours prior to testing. Thermal hyperalgesia, mechanical allodynia, mechanical hyperalgesia, weight bearing asymmetry and paw inflammation were determined. Rats are pretreated with test compounds either administered intravenously (IV), by subcutaneous injection (SC) or by oral gavage (PO).
# Thermal nociceptive thresholds are determined according to the method described elsewhere (Hargreaves et al., 1988). Briefly, through the glass surface, a radiant heat source (8V, 50 W projector bulb) is focused onto the plantar surface of the hind paw. The rat's paw-withdrawal latency to this stimulus is recorded to the nearest 0.1 s. Each latency score is an average of three trials, which are separated by at least 5 min. In all rats, both the injured and uninjured hind paws are similarly tested, allowing direct comparisons between inflamed and non-inflamed paws. […]
# Mechanical hyperalgesia is determined by measuring the difference of withdrawal thresholds in response to increasing pressure in the inflamed vs contralateral paw using the Randall-Sellito Paw pressure meter (IITC Life Science) (Randall L O and Sellito J J., 1957). Briefly, rats are held in a contention jacket suspended by a stand and allowed to acclimate for 10 min. Then the tips of the paw pressure applicator are positioned close to the middle of the plantar and the dorsal area of the paw, avoiding the saphenous nerve innervations and an increasing pressure is applied until the rat removes it. Measures are performed in triplicate for each paw by alternating each paw with an interval of at least 1 min to avoid sensitization. […]
# Carrageenan induced paw oedema is measured with a plethysmometer (IITC Life Science). Briefly, a mark is made on the ankles of the rat and the ipsi and contralateral paw are submerged 3 times into water up to the mark in order to determine the paw volume by calculation of water displacement.
# hASIC1a = target: T1, hASIC1a (Homo sapiens, UniProt P78348); assay: Fluorescent calcium dye (Fluo-4-NW) assay in cells expressing hASIC1a (Example 1); assay type: cell-based; settings: CHO cells stably expressing hASIC1a, mild acidic buffer, increasing concentrations; FIGS. 1A-1C
# T1 construct: expressed in transfected cells
# T1 sequence (P78348 1-528): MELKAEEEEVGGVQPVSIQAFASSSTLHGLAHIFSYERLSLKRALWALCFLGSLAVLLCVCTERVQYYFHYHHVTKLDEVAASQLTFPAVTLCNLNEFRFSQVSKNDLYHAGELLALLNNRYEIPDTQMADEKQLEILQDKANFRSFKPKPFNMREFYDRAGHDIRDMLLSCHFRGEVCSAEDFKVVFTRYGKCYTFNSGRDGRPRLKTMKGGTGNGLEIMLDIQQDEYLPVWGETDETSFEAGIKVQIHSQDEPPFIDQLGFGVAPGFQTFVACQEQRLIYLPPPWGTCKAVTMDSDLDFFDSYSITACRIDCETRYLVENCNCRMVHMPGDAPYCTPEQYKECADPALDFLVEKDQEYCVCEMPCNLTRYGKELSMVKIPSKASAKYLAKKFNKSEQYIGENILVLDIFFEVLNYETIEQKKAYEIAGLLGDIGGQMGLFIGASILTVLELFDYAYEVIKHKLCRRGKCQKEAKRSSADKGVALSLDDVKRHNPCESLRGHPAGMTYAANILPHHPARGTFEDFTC
# Description: ASIC1a expressing CHO cells are grown in culture medium (DMEM with 10% FBS), in polystyrene culture flasks ([…]) at 37° C. in a humidified atmosphere of 5% CO2. Confluency of cells should be 70-90% on day of plating. Cells are rinsed with 10 ml of PBS and cells are re-suspended by addition of culture medium and trituration with a 25 ml pipette. The cells are seeded at a density of approximately 10^4 cells/ml (50 μl/well and then brought to a total volume of 150 μl/well with culture medium, following 30 minutes incubation) in black-walled, clear bottom, 96-well plates pre-treated with poly-D-lysine (from BD Bioscience). Plated cells were allowed to proliferate for 48-72 h before loading with dye. Fluo-4-NW (500 μg, DiscoveRX) is dissolved in 110 μl DMSO. The Fluo-4-NW stock solution (1000×) is diluted with the assay buffer. A water soluble stock solution (100×) of probenicid (DiscoveRX) and a stock solution (1000×) of pluronic acid (P-127, Molecular Probes) are also added in the loading buffer containing Fluo-4NW dye. The culture medium is aspirated from the wells, and 100 μl of the Fluo-4-NW loading solution is added to each well. The cells are incubated at 37° C. for 30 min. followed by 30 min. incubation at room temperature. The assay buffer contains 90 mM NaCl, 5 mM KCl, 4 mM CaCl2, 0.8 mM MgSO4, 50 mM NMDG, 5 mM Glucose-D, 10 mM HEPES, pH 7.4. After the loading time, the loading buffer is not removed and the fluorescence is measured in FlexStation™ (Molecular Devices, USA), or any other suitable equipment known to the skilled in the art. Temperature: 25° C. First addition: 50 μl test solution at a rate of 26 μl/sec and a starting height of 125 μl. […] Reading intervals: pre-incubation—120 sec. antagonist phase, addition of MES at 145 sec. and reading time with agonist 100 sec (total run time of 240 sec.). Fluorescence obtained after stimulation is corrected for the mean basal fluorescence (in modified Assay Buffer). […] Gated-channel activity was determined by measuring intracellular calcium variation using a fluorescent calcium dye (Fluo-4-NW).
SMILES,mechanical hyperalgesia ([1]; 1 min prior to carrageenan),size of the inflammation ([1]; 1 min prior to carrageenan),thermal hyperalgesia ([1]; 1 min prior to carrageenan),inhibition of acid-induced hASIC1a activity (intracellular calcium variation) (hASIC1a),mechanical hyperalgesia ([1]; 30 min prior to carrageenan),size of the inflammation ([1]; 30 min prior to carrageenan),thermal hyperalgesia ([1]; 30 min prior to carrageenan)
"Cc1cc(OC2CCN(Cc3ccccc3)CC2)c2cc(O)ccc2n1 [Compound 13, 4-(1-benzylpiperidin-4-yloxy)-2-methylquinolin-6-ol]",dose-dependently reversed,reduced,dose-dependently reversed,dose-dependently inhibited,,,
Cc1ccc(-c2nc(Nc3ccc(C(=O)O)cc3)c3cc(Cl)ccc3n2)cc1 [Compound 124],,,,,dose-dependently reversed,reduced,dose-dependently reversed
